Measured values: patent US9868758B2, “Betulinic proline imidazole derivatives as HIV inhibitors” (HETERO LABS LIMITED, priority 2014, dated 2018)

What was measured:
[1] = test system: HIV-1 strains, for e.g., 92HT599; test: Antiviral activity: p24 estimation in HIV-1 infected MT-2 cells; type: cell-based; details: Human immunodeficiency virus 1, MT2, MT-2 cells; for inhibition at 0.01 µM / inhibition at 0.1 µM / inhibition at 1 µM: p24, ~96 hours; for IC50: p24, read-out: Antiviral activity IC50
Protocol: MT-2 cells were infected with required number of TCID50's of HIV-1 strains, for e.g., 92HT599. The infected cells were plated at the concentration of 30,000 cells per well in a 96 well plate. Test compound was added to the 96 well plate with the final concentration of DMSO (vehicle—not more than 1%). The plates are then incubated in a CO2 incubator for ˜96 hours (˜4 days) for viral infection. At the end of incubation period an aliquot from each well was taken for p24 estimation. The quantitation of p24 is an estimated index for antiviral activity of the compound. Percent inhibition was calculated with reference to control values (vehicle controls).
p-24 estimation was carried out using Advance biosciences kit as per the procedure detailed by supplier.

[2] = Cyto-toxicity, MTT assay; type: cell-based; details: read-out: Cytotoxicity % viability
Protocol: On day 1 calculate the number of cells required for the assay and seed 3×10^4 cells in 200 μl per well. Weigh the compound and dissolve it in DMSO to get 10 mM stock which is further diluted to 3 mM and 1 mM. The drugs from these stocks were added to plate to get final concentration of 100 μM, 30 μM and 10 μM. […] Incubate for 4 days in 5% CO2 incubator at 37° C. On day 4, 100 μl of medium was removed from each well without disturbing the cells. Add 10 μl of MTT reagent and incubate for 4 hours at 5% CO2 incubator at 37° C. for formation of crystals. Add 200 μl of 0.1N acidic isopropanol to dissolve the crystals and read the plate at 590 nm.

[3] = Single dose oral pharmacokinetic study; set-up: species or system mice; details: mouse, in vivo, po, 30 mg/kg
Protocol: The test item was administered through oral route to animals (rat/mice) at 30 mg/kg dose in a suitable vehicle at 10 ml/kg dose volume. Blood samples (˜50 uL at each time point) were collected from retro-orbital plexus using K3 EDTA as anticoagulant in eppendorf tubes at defined time intervals under light ether anesthesia. The samples were centrifuged at 3500×g to separate plasma and stored at −80° C. until analysis.
Sample analysis: Test samples were analyzed using LC-MS-MS after developing fit-for-purpose method for each of test compound.

SMILES	inhibition at 0.01 µM [1] [%]	inhibition at 0.1 µM [1] [%]	inhibition at 1 µM [1] [%]	viability at 4 days, 10 µM [2] [%]	viability at 4 days, 30 µM [2] [%]	viability at 4 days, 100 µM [2] [%]	IC50 [1] [nM]	AUC(0-t) [3] [µg·h/mL]	Cmax [3] [ng/mL]
C=C(C)[C@@H]1CC[C@]2(C(=O)N3CCC[C@H]3c3nc(-c4cccc(F)c4)cn3CCN(C)C)CC[C@]3(C)[C@H](CC[C@@H]4[C@@]5(C)CC[C@H](OC(=O)[C@H]6C[C@@H](C(=O)O)C6(C)C)C(C)(C)[C@@H]5CC[C@]43C)[C@@H]12 [Compound 12, (1R,3S)-3-((((1R,3aS,5aR,5bR,7aR,9S,11aR,11bR,13aR,13bR)-3a-((S)-2-(1-(2-(dimethylamino)ethyl)-4-(3-fluorophenyl)-1H-imidazol-2-yl)pyrrolidine-1-carbonyl)-5a,5b,8,8,11a-pentamethyl-1-(prop-1-en-2-yl)icosahydro-1H-cyclopenta[a]chrysen-9-yl)oxy)carbonyl)-2,2-dimethyl cyclobutane-1-carboxylic acid]	24	44	99	42	31	5			
C=C(C)[C@@H]1CC[C@]2(C(=O)N3CCC[C@H]3c3nc(-c4ccccc4)cn3CCP(=O)(O)O)CC[C@]3(C)[C@H](CC[C@@H]4[C@@]5(C)CC[C@H](OC(=O)[C@H]6C[C@@H](C(=O)O)C6(C)C)C(C)(C)[C@@H]5CC[C@]43C)[C@@H]12 [Compound 23, (1R,3S)-2,2-dimethyl-3-((((1R,3aS,5aR,5bR,7aR,9S,11aR,11bR,13aR,13bR)-5a,5b,8,8,11a-pentamethyl-3a-((S)-2-(4-phenyl-1-(2-phosphonoethyl)-1H-imidazol-2-yl)pyrrolidine-1-carbonyl)-1-(prop-1-en-2-yl)icosahydro-1H-cyclopenta[a]chrysen-9-yl)oxy)carbonyl)cyclo butane-1-carboxylic acid]	24	21	66	88	77	66			
C=C(C)[C@@H]1CC[C@]2(C(=O)N3CCC[C@H]3c3nc(-c4ccccc4)cn3CCN(C)C)CC[C@]3(C)[C@H](CC[C@@H]4[C@@]5(C)CC[C@H](OC(=O)CC(C)(C)C(=O)O)C(C)(C)[C@@H]5CC[C@]43C)[C@@H]12 [Compound 16, 4-(((1R,3aS,5aR,5bR,7aR,9S,11aR,11bR,13aR,13bR)-3a-((S)-2-(1-(2-(dimethylamino)ethyl)-4-phenyl-1H-imidazol-2-yl)pyrrolidine-1-carbonyl)-5a,5b,8,8,11a-pentamethyl-1-(prop-1-en-2-yl)icosahydro-1H-cyclopenta[a]chrysen-9-yl)oxy)-2,2-dimethyl-4-oxo butanoic acid]							8.48	294	9030
C=C(C)[C@@H]1CC[C@]2(C(=O)N3CCC[C@H]3c3nc(-c4ccccc4)cn3C)CC[C@]3(C)[C@H](CC[C@@H]4[C@@]5(C)CC[C@H](OC(=O)CC(C)(C)C(=O)O)C(C)(C)[C@@H]5CC[C@]43C)[C@@H]12 [Compound 15, 2,2-dimethyl-4-oxo-4-(((1R,3aS,5aR,5bR,7aR,9S,11aR,11bR,13aR,13bR)-5a,5b,8,8,11a-pentamethyl-3a-((S)-2-(1-methyl-4-phenyl-1H-imidazol-2-yl)pyrrolidine-1-carbonyl)-1-(prop-1-en-2-yl)icosahydro-1H-cyclopenta[a]chrysen-9-yl)oxy)butanoic acid]							7.42	376	15300
C=C(C)[C@@H]1CC[C@]2(C(=O)N3CCC[C@H]3c3nc(-c4ccncc4)cn3CCN3CCCC3)CC[C@]3(C)[C@H](CC[C@@H]4[C@@]5(C)CC[C@H](OC(=O)[C@H]6C[C@@H](C(=O)O)C6(C)C)C(C)(C)[C@@H]5CC[C@]43C)[C@@H]12 [Compound 9, (1R,3S)-2,2-dimethyl-3-((((1R,3aS,5aR,5bR,7aR,9S,11aR,11bR,13aR,13bR)-5a,5b,8,8,11a-pentamethyl-1-(prop-1-en-2-yl)-3a-((S)-2-(4-(pyridin-4-yl)-1-(2-(pyrrolidin-1-yl)ethyl)-1H-imidazol-2-yl)pyrrolidine-1-carbonyl)icosahydro-1H-cyclopenta[a]chrysen-9-yl)oxy)carbonyl) cyclobutane-1-carboxylic acid]							10.6	260	6900
C=C(C)[C@@H]1CC[C@]2(C(=O)N3CCC[C@H]3c3nc(-c4ccccc4)cn3CCOC)CC[C@]3(C)[C@H](CC[C@@H]4[C@@]5(C)CC[C@H](OC(=O)CC(C)(C)C(=O)O)C(C)(C)[C@@H]5CC[C@]43C)[C@@H]12 [Compound 17, 4-(((1R,3aS,5aR,5bR,7aR,9S,11aR,11bR,13aR,13bR)-3a-((S)-2-(1-(2-methoxyethyl)-4-phenyl-1H-imidazol-2-yl)pyrrolidine-1-carbonyl)-5a,5b,8,8,11a-pentamethyl-1-(prop-1-en-2-yl)icosahydro-1H-cyclopenta[a]chrysen-9-yl)oxy)-2,2-dimethyl-4-oxobutanoic acid]							0.3	271	13000
C=C(C)[C@@H]1CC[C@]2(C(=O)N3CCC[C@H]3c3nc(-c4ccncc4)cn3CCN(C)C)CC[C@]3(C)[C@H](CC[C@@H]4[C@@]5(C)CC[C@H](OC(=O)[C@H]6C[C@@H](C(=O)O)C6(C)C)C(C)(C)[C@@H]5CC[C@]43C)[C@@H]12 [Compound 8, (1R,3S)-3-((((1R,3aS,5aR,5bR,7aR,9S,11aR,11bR,13aR,13bR)-3a-((S)-2-(1-(2-(dimethylamino)ethyl)-4-(pyridin-4-yl)-1H-imidazol-2-yl)pyrrolidine-1-carbonyl)-5a,5b,8,8,11a-pentamethyl-1-(prop-1-en-2-yl)icosahydro-1H-cyclopenta[a]chrysen-9-yl)oxy)carbonyl)-2,2-dimethyl cyclobutane-1-carboxylic acid]							12.5	243	9080
C=C(C)[C@@H]1CC[C@]2(C(=O)N3CCC[C@H]3c3nc(C(C)(C)C)cn3CCN(C)C)CC[C@]3(C)[C@H](CC[C@@H]4[C@@]5(C)CC[C@H](OC(=O)[C@H]6C[C@@H](C(=O)O)C6(C)C)C(C)(C)[C@@H]5CC[C@]43C)[C@@H]12 [Compound 11, (1R,3S)-3-((((1R,3aS,5aR,5bR,7aR,9S,11aR,11bR,13aR,13bR)-3a-((S)-2-(4-(tert-butyl)-1-(2-(dimethylamino)ethyl)-1H-imidazol-2-yl)pyrrolidine-1-carbonyl)-5a,5b,8,8,11a-pentamethyl-1-(prop-1-en-2-yl)icosahydro-1H-cyclopenta[a]chrysen-9-yl)oxy)carbonyl)-2,2-dimethyl cyclobutane-1-carboxylic acid]							3.58	755	18100
CN(C)CCn1cc(-c2cccnc2)nc1[C@@H]1CCCN1C(=O)[C@]12CC[C@@H](C3(C)CC3)[C@@H]1[C@H]1CC[C@@H]3[C@@]4(C)CC[C@H](OC(=O)[C@H]5C[C@@H](C(=O)O)C5(C)C)C(C)(C)[C@@H]4CC[C@@]3(C)[C@]1(C)CC2 [Compound 19, (1R,3S)-3-((((1R,3aS,5aR,5bR,7aR,9S,11aR,11bR,13aR,13bR)-3a-((S)-2-(1-(2-(dimethylamino)ethyl)-4-(pyridin-3-yl)-1H-imidazol-2-yl)pyrrolidine-1-carbonyl)-5a,5b,8,8,11a-pentamethyl-1-(1-methylcyclopropyl)icosahydro-1H-cyclopenta[a]chrysen-9-yl)oxy)carbonyl)-2,2-dimethylcyclobutane-1-carboxylic acid]							7.76	97.4	4260
C=C(C)[C@@H]1CC[C@]2(C(=O)N3CCC[C@H]3c3nc(-c4ccccc4)cn3CCN3CCOCC3)CC[C@]3(C)[C@H](CC[C@@H]4[C@@]5(C)CC[C@H](OC(=O)[C@H]6C[C@@H](C(=O)O)C6(C)C)C(C)(C)[C@@H]5CC[C@]43C)[C@@H]12 [Compound 3, (1R,3S)-2,2-dimethyl-3-((((1R,3aS,5aR,5bR,7aR,9S,11aR,11bR,13aR,13bR)-5a,5b,8,8,11a-pentamethyl-3a-((S)-2-(1-(2-morpholinoethyl)-4-phenyl-1H-imidazol-2-yl)pyrrolidine-1-carbonyl)-1-(prop-1-en-2-yl)icosahydro-1H-cyclopenta[a]chrysen-9-yl)oxy)carbonyl)cyclo butane-1-carboxylic acid]							113	407	14700
